From ChEMBL document CHEMBL3994611, “Synthesis and biological evaluation of deferiprone-resveratrol hybrids as antioxidants, Aβ1-42 aggregation inhibitors and metal-chelating agents for Alzheimer's disease” (Eur J Med Chem, 2017)
Active and inactive are the calls of the source. No cut-off for these calls is given here.

Tests used:
[1] = Antioxidant activity assessed as ABTS radical scavenging activity incubated for 10 mins under dark condition; type: functional
[2] = Binding affinity to CP645 probe-labeled Fe3+ in DMSO/MOPS buffer assessed as concentration of free Fe3+ in solution at 60 uM after 48 hrs by spectrofluorophotometric method
[3] = molecular target: T1, Amyloid-beta precursor protein (Homo sapiens, UniProt P05067); assay: Inhibition of HFIP-pretreated amyloid beta (1 to 42) (unknown origin) self-induced aggregation at 20 uM incubated for 24 hrs under dark condition by thioflavin-T based fluorometric assay relative to control
T1 sequence (P05067 whole entry): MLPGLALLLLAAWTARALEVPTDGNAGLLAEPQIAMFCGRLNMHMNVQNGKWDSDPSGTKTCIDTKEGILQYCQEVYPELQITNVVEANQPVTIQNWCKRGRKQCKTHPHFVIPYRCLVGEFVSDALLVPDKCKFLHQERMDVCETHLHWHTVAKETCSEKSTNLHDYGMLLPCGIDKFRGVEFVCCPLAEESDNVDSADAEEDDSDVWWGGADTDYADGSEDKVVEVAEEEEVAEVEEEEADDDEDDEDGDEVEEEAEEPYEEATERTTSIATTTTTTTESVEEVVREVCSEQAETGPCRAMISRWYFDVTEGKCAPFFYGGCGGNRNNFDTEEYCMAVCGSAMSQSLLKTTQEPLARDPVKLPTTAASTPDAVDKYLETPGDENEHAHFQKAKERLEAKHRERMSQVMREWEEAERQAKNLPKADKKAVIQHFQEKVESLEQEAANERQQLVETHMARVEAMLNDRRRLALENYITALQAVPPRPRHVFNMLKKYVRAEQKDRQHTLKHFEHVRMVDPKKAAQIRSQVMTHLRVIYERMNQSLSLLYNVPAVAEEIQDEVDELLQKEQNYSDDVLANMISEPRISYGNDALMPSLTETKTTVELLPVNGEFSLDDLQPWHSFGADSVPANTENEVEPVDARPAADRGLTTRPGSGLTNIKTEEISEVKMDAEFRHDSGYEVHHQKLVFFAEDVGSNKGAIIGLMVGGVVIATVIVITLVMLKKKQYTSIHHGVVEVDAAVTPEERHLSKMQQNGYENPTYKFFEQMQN

[4] = Binding affinity to Cu2+ assessed as inhibition of Cu2+-induced amyloid beta (1 to 42) aggregation at 75 uM incubated for 24 hrs under dark condition by uranyl acetate staining based transmission electron microscopic method
[5] = Binding affinity to Fe3+ assessed as inhibition of Fe3+-induced amyloid beta (1 to 42) aggregation at 50 uM incubated for 24 hrs under dark condition by uranyl acetate staining based transmission electron microscopic method
[6] = Binding affinity to Cu2+ assessed as inhibition of Cu2+-induced amyloid beta (1 to 42) aggregation by measuring Cu2+-amyloid beta (1 to 42) complex fluorescence at 75 uM incubated for 24 hrs under dark condition by thioflavin-T based fluorometric assay relative to control; parameters: scale not given: the % may be the effect or the level left
[7] = Binding affinity to Cu2+ assessed as disaggregation of Cu2+-induced amyloid beta (1 to 42) aggregation at 75 uM incubated for 24 hrs under dark condition by uranyl acetate staining based transmission electron microscopic method
[8] = (§1) Binding affinity to Fe3+ assessed as disaggregation of Fe3+-induced amyloid beta (1 to 42) aggregation by measuring Fe3+-amyloid beta (1 to 42) complex fluorescence at 50 uM treated 24 hrs after Fe3+ addition measured after 24 hrs incubation under dark condition by thioflavin-T based fluorometric assay relative to control
[9] = as §1, with “Cu2+” for “Fe3+”, “Cu2+-induced” for “Fe3+-induced”, “Cu2+-amyloid” for “Fe3+-amyloid”, “75” for “50”
[10] = Binding affinity to Fe3+ in DMSO/MOPS buffer assessed as maximal absorbance intensity at iron to ligand ratio of 1:4 by UV-visible spectrophotometric method
[11] = molecular target: T1, Amyloid-beta precursor protein; assay: Inhibition of HFIP-pretreated amyloid beta (1 to 42) (unknown origin) self-induced aggregation incubated for 24 hrs under dark condition by thioflavin-T based fluorometric assay
[12] = Binding affinity to Fe3+ assessed as disaggregation of Fe3+-induced amyloid beta (1 to 42) aggregation at 50 uM incubated for 24 hrs under dark condition by uranyl acetate staining based transmission electron microscopic method
[13] = Binding affinity to Fe3+ assessed as inhibition of Fe3+-induced amyloid beta (1 to 42) aggregation by measuring Fe3+-amyloid beta (1 to 42) complex fluorescence at 50 uM incubated for 24 hrs under dark condition by thioflavin-T based fluorometric assay relative to control; parameters: scale not given: the % may be the effect or the level left
[14] = Binding affinity to Zn2+ assessed as cumulative stability constant
[15] = Binding affinity to Cu2+ assessed as cumulative stability constant
[16] = Binding affinity to Fe3+ assessed as cumulative stability constant

Row | SMILES | IC50 [1] [µM] | log free Fe3+ concentration [2] | inhibition [3] [%] | IC50 [11] [µM] | other results
1 | O=c1cc(/C=C/c2cc(O)cc(O)c2)[nH]cc1O | 0.88 | -19.2 | 18.2 |  | 
2 | O=c1cc(/C=C/c2ccc(O)cc2)[nH]cc1O | 1.73 | -19.6 | 58.4 | 10.7 | Activity [4]: Active; Activity [5]: Active; Activity [6]: 65%; Activity [7]: Active; Activity [8]: 25%; Activity [9]: 69%; Activity [10]: Active; Activity [12]: Active; Activity [13]: 62%
3 | COc1ccccc1/C=C/c1cc(=O)c(O)c[nH]1 | 6.74 | -20.2 | 54.9 | 16.5 | 
4 | COc1ccccc1/C=C/c1cc(=O)c(O)cn1C | 4.17 | -20.6 | 56.8 | 12.5 | 
5 | Cn1cc(O)c(=O)cc1/C=C/c1ccc([N+](=O)[O-])cc1 | 19.2 | -18.4 |  |  | 
6 | O=c1cc(/C=C/c2ccccc2O)[nH]cc1O | 2.21 | -20.2 | 49.3 | 21.8 | 
7 | CCOc1ccc(/C=C/c2cc(=O)c(O)cn2C)cc1 | 4.02 | -19 | 65.3 | 8.94 | Activity [4]: Active; Activity [5]: Active; Activity [6]: 57%; Activity [7]: Active; Activity [8]: 16%; Activity [9]: 47%; Activity [12]: Active; Activity [13]: 64%
8 | Cn1cc(O)c(=O)cc1/C=C/c1ccccc1O | 1.83 | -20.3 | 31.1 |  | 
9 | CCOc1ccc(/C=C/c2cc(=O)c(O)c[nH]2)cc1 | 8.12 | -20.1 | 51.5 | 23.4 | 
10 | Oc1ccc(/C=C/c2cc(O)cc(O)c2)cc1 [RESVERATROL] | 0.76 |  |  |  | Activity [6]: 86%; Activity [7]: Active; Activity [8]: 58%; Activity [9]: 35%; Activity [12]: Active; Activity [13]: 87%
11 | Cn1cc(O)c(=O)cc1/C=C/c1cccc(F)c1 | 1.31 | -20.1 | 52.4 | 19.4 | 
12 | O=c1cc(/C=C/c2ccc([N+](=O)[O-])cc2)[nH]cc1O | 4.79 | -19.5 |  |  | 
13 | O=c1cc(/C=C/c2cccc(F)c2)[nH]cc1O | 6.29 | -20.2 | 53.2 | 19 | 
14 | CN(C)c1ccc(/C=C/c2cc(=O)c(O)cn2C)cc1 | 2.52 | -19.2 | 44.9 |  | 
15 | COc1cc(/C=C/c2cc(=O)c(O)cn2C)cc(OC)c1 | 3.74 | -21.2 | 28.3 |  | 
16 | Cc1c(C)c2c(c(C)c1O)CCC(C)(C(=O)O)O2 (stereo not drawn) [TROLOX] | 3.89 |  |  |  | 
17 | Cc1c(O)c(=O)ccn1C |  | -20.6 |  |  | K [14]: 13.5; K [15]: 21.7; K [16]: 37.2
18 | CN(C)c1ccc(/C=C/c2cc(=O)c(O)c[nH]2)cc1 | 3.41 | -20.1 | 49.6 | 29.2 | 
19 | O=c1cc(/C=C/c2ccccc2)[nH]cc1O | 4.03 | -21 | 38.2 |  | 
20 | COc1cc(/C=C/c2cc(=O)c(O)c[nH]2)cc(OC)c1 | 11.4 | -21.6 | 35.3 |  | 
21 | Cn1cc(O)c(=O)cc1/C=C/c1ccc(Cl)cc1 | 5.72 | -20.8 | 14.5 |  | 
22 | Cn1cc(O)c(=O)cc1/C=C/c1ccc(O)cc1 | 1.37 | -20.1 | 52.5 | 15.4 | 
23 | Cn1cc(O)c(=O)cc1/C=C/c1cc(O)cc(O)c1 | 1.19 | -20.1 | 22.4 |  | 
24 | Cn1cc(O)c(=O)cc1/C=C/c1ccccc1 | 2.11 | -19.8 | 21.6 |  | 
25 | O=c1cc(/C=C/c2ccc(Cl)cc2)[nH]cc1O | 11.5 | -19.5 | 11.6 |  | 
